Reference: patent US20030199431A1, “Modified peptide nucleic acid (PNA) molecules” (priority 1999, published 2003)
Where two headings read alike, the source gives them in different places.

How the values were obtained:
E. coli K12 = type: cell-based, Escherichia coli
Procedure: To test the effect of a Peptide without a PNA, peptide no. 2339, H-KFFKFFKFF-OH (SEQ ID NO: 1), was added to E. coli K12 in 10% and 100% medium (Mueller-Hinton broth).

test culture = type: cell-based

Substance: H-KFFKFFKFF-OH [Peptide 2339]
- Bacterial growth inhibition (E. coli K12; Peptide 100 nM, 4.0 × 10^3 bacteria/ml, 10% medium): − (Lagphase extended less than five times;)
- Bacterial growth inhibition (E. coli K12; Peptide 100 nM, 4.0 × 10^4 bacteria/ml, 10% medium): − (Lagphase extended less than five times;)
- Bacterial growth inhibition (E. coli K12; Peptide 100 nM, 7.9 × 10^3 bacteria/ml, 10% medium): − (Lagphase extended less than five times;)
- Bacterial growth inhibition (E. coli K12; Peptide 100 nM, 16 bacteria/ml, 100% medium): − (Lagphase extended less than five times)
- Bacterial growth inhibition (E. coli K12; Peptide 100 nM, 160 bacteria/ml, 100% medium): − (Lagphase extended less than five times)
- Bacterial growth inhibition (E. coli K12; Peptide 100 nM, 1600 bacteria/ml, 100% medium): − (Lagphase extended less than five times)
- Bacterial growth inhibition (E. coli K12; Peptide 300 nM, 4.0 × 10^3 bacteria/ml, 10% medium): − (Lagphase extended less than five times;)
- Bacterial growth inhibition (E. coli K12; Peptide 300 nM, 4.0 × 10^4 bacteria/ml, 10% medium): − (Lagphase extended less than five times;)
- Bacterial growth inhibition (E. coli K12; Peptide 300 nM, 7.9 × 10^3 bacteria/ml, 10% medium): − (Lagphase extended less than five times;)
- Bacterial growth inhibition (E. coli K12; Peptide 300 nM, 16 bacteria/ml, 100% medium): − (Lagphase extended less than five times)
- Bacterial growth inhibition (E. coli K12; Peptide 300 nM, 160 bacteria/ml, 100% medium): − (Lagphase extended less than five times)
- Bacterial growth inhibition (E. coli K12; Peptide 300 nM, 1600 bacteria/ml, 100% medium): − (Lagphase extended less than five times)
- Bacterial growth inhibition (E. coli K12; Peptide 500 nM, 4.0 × 10^3 bacteria/ml, 10% medium): − (Lagphase extended less than five times;)
- Bacterial growth inhibition (E. coli K12; Peptide 500 nM, 4.0 × 10^4 bacteria/ml, 10% medium): − (Lagphase extended less than five times;)
- Bacterial growth inhibition (E. coli K12; Peptide 500 nM, 7.9 × 10^3 bacteria/ml, 10% medium): − (Lagphase extended less than five times;)
- Bacterial growth inhibition (E. coli K12; Peptide 500 nM, 16 bacteria/ml, 100% medium): − (Lagphase extended less than five times)
- Bacterial growth inhibition (E. coli K12; Peptide 500 nM, 160 bacteria/ml, 100% medium): − (Lagphase extended less than five times)
- Bacterial growth inhibition (E. coli K12; Peptide 500 nM, 1600 bacteria/ml, 100% medium): − (Lagphase extended less than five times)
- Bacterial growth inhibition (E. coli K12; Peptide 700 nM, 4.0 × 10^3 bacteria/ml, 10% medium): − (Lagphase extended less than five times;)
- Bacterial growth inhibition (E. coli K12; Peptide 700 nM, 4.0 × 10^4 bacteria/ml, 10% medium): − (Lagphase extended less than five times;)
- Bacterial growth inhibition (E. coli K12; Peptide 700 nM, 7.9 × 10^3 bacteria/ml, 10% medium): − (Lagphase extended less than five times;)
- Bacterial growth inhibition (E. coli K12; Peptide 700 nM, 16 bacteria/ml, 100% medium): − (Lagphase extended less than five times)
- Bacterial growth inhibition (E. coli K12; Peptide 700 nM, 160 bacteria/ml, 100% medium): − (Lagphase extended less than five times)
- Bacterial growth inhibition (E. coli K12; Peptide 700 nM, 1600 bacteria/ml, 100% medium): − (Lagphase extended less than five times)
- Bacterial growth inhibition (E. coli K12; Peptide 900 nM, 4.0 × 10^3 bacteria/ml, 10% medium): − (Lagphase extended less than five times;)
- Bacterial growth inhibition (E. coli K12; Peptide 900 nM, 4.0 × 10^4 bacteria/ml, 10% medium): − (Lagphase extended less than five times;)
- Bacterial growth inhibition (E. coli K12; Peptide 900 nM, 7.9 × 10^3 bacteria/ml, 10% medium): − (Lagphase extended less than five times;)
- Bacterial growth inhibition (E. coli K12; Peptide 900 nM, 16 bacteria/ml, 100% medium): − (Lagphase extended less than five times)
- Bacterial growth inhibition (E. coli K12; Peptide 900 nM, 160 bacteria/ml, 100% medium): − (Lagphase extended less than five times)
- Bacterial growth inhibition (E. coli K12; Peptide 900 nM, 1600 bacteria/ml, 100% medium): − (Lagphase extended less than five times)
- Bacterial growth inhibition (E. coli K12; Peptide 1100 nM, 4.0 × 10^3 bacteria/ml, 10% medium): − (Lagphase extended less than five times;)
- Bacterial growth inhibition (E. coli K12; Peptide 1100 nM, 4.0 × 10^4 bacteria/ml, 10% medium): − (Lagphase extended less than five times;)
- Bacterial growth inhibition (E. coli K12; Peptide 1100 nM, 7.9 × 10^3 bacteria/ml, 10% medium): − (Lagphase extended less than five times;)
- Bacterial growth inhibition (E. coli K12; Peptide 1100 nM, 16 bacteria/ml, 100% medium): − (Lagphase extended less than five times)
- Bacterial growth inhibition (E. coli K12; Peptide 1100 nM, 160 bacteria/ml, 100% medium): − (Lagphase extended less than five times)
- Bacterial growth inhibition (E. coli K12; Peptide 1100 nM, 1600 bacteria/ml, 100% medium): − (Lagphase extended less than five times)
- Bacterial growth inhibition (E. coli K12; Peptide 1300 nM, 4.0 × 10^3 bacteria/ml, 10% medium): − (Lagphase extended less than five times;)
- Bacterial growth inhibition (E. coli K12; Peptide 1300 nM, 4.0 × 10^4 bacteria/ml, 10% medium): − (Lagphase extended less than five times;)
- Bacterial growth inhibition (E. coli K12; Peptide 1300 nM, 7.9 × 10^3 bacteria/ml, 10% medium): − (Lagphase extended less than five times;)
- Bacterial growth inhibition (E. coli K12; Peptide 1300 nM, 16 bacteria/ml, 100% medium): − (Lagphase extended less than five times)
- Bacterial growth inhibition (E. coli K12; Peptide 1300 nM, 160 bacteria/ml, 100% medium): − (Lagphase extended less than five times)
- Bacterial growth inhibition (E. coli K12; Peptide 1300 nM, 1600 bacteria/ml, 100% medium): − (Lagphase extended less than five times)
- Bacterial growth inhibition (E. coli K12; Peptide 1500 nM, 4.0 × 10^3 bacteria/ml, 10% medium): − (Lagphase extended less than five times;)
- Bacterial growth inhibition (E. coli K12; Peptide 1500 nM, 4.0 × 10^4 bacteria/ml, 10% medium): − (Lagphase extended less than five times;)
- Bacterial growth inhibition (E. coli K12; Peptide 1500 nM, 7.9 × 10^3 bacteria/ml, 10% medium): − (Lagphase extended less than five times;)
- Bacterial growth inhibition (E. coli K12; Peptide 1500 nM, 16 bacteria/ml, 100% medium): − (Lagphase extended less than five times)
- Bacterial growth inhibition (E. coli K12; Peptide 1500 nM, 160 bacteria/ml, 100% medium): − (Lagphase extended less than five times)
- Bacterial growth inhibition (E. coli K12; Peptide 1500 nM, 1600 bacteria/ml, 100% medium): − (Lagphase extended less than five times)
- Bacterial growth inhibition (E. coli K12; Peptide 2500 nM, 4.0 × 10^3 bacteria/ml, 10% medium): − (Lagphase extended less than five times;)
- Bacterial growth inhibition (E. coli K12; Peptide 2500 nM, 4.0 × 10^4 bacteria/ml, 10% medium): − (Lagphase extended less than five times;)
- Bacterial growth inhibition (E. coli K12; Peptide 2500 nM, 7.9 × 10^3 bacteria/ml, 10% medium): − (Lagphase extended less than five times;)
- Bacterial growth inhibition (E. coli K12; Peptide 2500 nM, 16 bacteria/ml, 100% medium): − (Lagphase extended less than five times)
- Bacterial growth inhibition (E. coli K12; Peptide 2500 nM, 160 bacteria/ml, 100% medium): − (Lagphase extended less than five times)
- Bacterial growth inhibition (E. coli K12; Peptide 2500 nM, 1600 bacteria/ml, 100% medium): − (Lagphase extended less than five times)
- Bacterial growth inhibition (E. coli K12; Peptide 5000 nM, 4.0 × 10^3 bacteria/ml, 10% medium): ((+)) (Lagphase extended less than five times, but still with growth curve effect)
- Bacterial growth inhibition (E. coli K12; Peptide 5000 nM, 4.0 × 10^4 bacteria/ml, 10% medium): ((+)) (Lagphase extended less than five times, but still with growth curve effect)
- Bacterial growth inhibition (E. coli K12; Peptide 5000 nM, 7.9 × 10^3 bacteria/ml, 10% medium): ((+)) (Lagphase extended less than five times, but still with growth curve effect)
- Bacterial growth inhibition (E. coli K12; Peptide 5000 nM, 16 bacteria/ml, 100% medium): − (Lagphase extended less than five times)
- Bacterial growth inhibition (E. coli K12; Peptide 5000 nM, 160 bacteria/ml, 100% medium): − (Lagphase extended less than five times)
- Bacterial growth inhibition (E. coli K12; Peptide 5000 nM, 1600 bacteria/ml, 100% medium): − (Lagphase extended less than five times)
- Bacterial growth inhibition (E. coli K12; Peptide 10000 nM, 4.0 × 10^3 bacteria/ml, 10% medium): ((+)) (Lagphase extended less than five times, but still with growth curve effect)
- Bacterial growth inhibition (E. coli K12; Peptide 10000 nM, 4.0 × 10^4 bacteria/ml, 10% medium): ((+)) (Lagphase extended less than five times, but still with growth curve effect)
- Bacterial growth inhibition (E. coli K12; Peptide 10000 nM, 7.9 × 10^3 bacteria/ml, 10% medium): ((+)) (Lagphase extended less than five times, but still with growth curve effect)
- Bacterial growth inhibition (E. coli K12; Peptide 10000 nM, 16 bacteria/ml, 100% medium): − (Lagphase extended less than five times)
- Bacterial growth inhibition (E. coli K12; Peptide 10000 nM, 160 bacteria/ml, 100% medium): − (Lagphase extended less than five times)
- Bacterial growth inhibition (E. coli K12; Peptide 10000 nM, 1600 bacteria/ml, 100% medium): − (Lagphase extended less than five times)
- Bacterial growth inhibition (E. coli K12; Peptide 15000 nM, 4.0 × 10^3 bacteria/ml, 10% medium): ((+)) (Lagphase extended less than five times, but still with growth curve effect)
- Bacterial growth inhibition (E. coli K12; Peptide 15000 nM, 4.0 × 10^4 bacteria/ml, 10% medium): ((+)) (Lagphase extended less than five times, but still with growth curve effect)
- Bacterial growth inhibition (E. coli K12; Peptide 15000 nM, 7.9 × 10^3 bacteria/ml, 10% medium): ((+)) (Lagphase extended less than five times, but still with growth curve effect)
- Bacterial growth inhibition (E. coli K12; Peptide 15000 nM, 16 bacteria/ml, 100% medium): − (Lagphase extended less than five times)
- Bacterial growth inhibition (E. coli K12; Peptide 15000 nM, 160 bacteria/ml, 100% medium): − (Lagphase extended less than five times)
- Bacterial growth inhibition (E. coli K12; Peptide 15000 nM, 1600 bacteria/ml, 100% medium): − (Lagphase extended less than five times)
- Bacterial growth inhibition (E. coli K12; Peptide 20000 nM, 4.0 × 10^3 bacteria/ml, 10% medium): +
- Bacterial growth inhibition (E. coli K12; Peptide 20000 nM, 4.0 × 10^4 bacteria/ml, 10% medium): ((+)) (Lagphase extended less than five times, but still with growth curve effect)
- Bacterial growth inhibition (E. coli K12; Peptide 20000 nM, 7.9 × 10^3 bacteria/ml, 10% medium): +
- Bacterial growth inhibition (E. coli K12; Peptide 20000 nM, 16 bacteria/ml, 100% medium): (+) (Significantly extended lagphase, (more than five times))
- Bacterial growth inhibition (E. coli K12; Peptide 20000 nM, 160 bacteria/ml, 100% medium): − (Lagphase extended less than five times)
- Bacterial growth inhibition (E. coli K12; Peptide 20000 nM, 1600 bacteria/ml, 100% medium): − (Lagphase extended less than five times)
- Peptide concentration giving total inhibition of growth (E. coli K12; cultures with 7.9×10^3 cells/ml, peptide without PNA): at least 20,000 nM
- Peptide concentration at which minimal signs of growth inhibition were detected (E. coli K12; peptide without PNA): ≥ 5,000 nM
- Bacterial growth inhibition (test culture): − (key: +: Total inhibition of bacterial growth.; (+): Significantly extended lagphase, (more than five times); −: Lagphase extended less than five times;)
